Laboratory results as given in patent US4647693A, “Antibiotics DO-248-A and B and process for preparing the same” (Shionogi & Co., Ltd., priority 1984, dated 1987).
Values after ≈ are worked out from the molar mass of the structure shown. “Also recorded” adds a separate entry of the source. Read-outs that look alike come from different tables or passages of the source.

How the values were obtained:
[1] = tested on: M. intracellulare KMC3209; experiment: MIC, two-fold dilution, Dubos Tween albumin liquid medium; type: cell-based; conditions: Mycobacterium intracellulare, read-out: minimal inhibitory concentration (MIC)
[2] = tested on: rifanpicin-resistant strains; experiment: Antibacterial activity against resistant strains, in words; type: cell-based
Description: (§1) Fast-acid bacillus (0.01 mg) shown in Table 1 was inoculated into 2.0 ml of Dubos Tween albumin liquid medium and the minimal inhibitory concentration (MIC, μg/ml) of DO-248-A (Compound A), kanamycin (KM) and rifampicin (RFP) was measured by two-fold dilution method. The incubation temperature for Mycobacterium marinum was 28° C. and that for all other microorganisms was 37° C. The judgement was made generally 2 weeks later but 1 week later on M. furtuitum and M. chelonei and 5 weeks later on M. xenopi.

[3] = tested on: kanamycin-resistant strains; experiment: as above; type: cell-based
Description: as §1

[4] = tested on: M. szulgai KMC2401; experiment: MIC, two-fold dilution, Dubos Tween albumin liquid medium; type: cell-based; conditions: 336 h, read-out: minimal inhibitory concentration (MIC)
[5] = tested on: M. tuberculosis H37Rv; experiment: as above; type: cell-based; conditions: Mycobacterium tuberculosis, 336 h, 37° C., 2 weeks, read-out: minimal inhibitory concentration (MIC)
Description: as §1

[6] = tested on: M. avium-intracellulare clinical isolated strain 16; experiment: as above; type: cell-based; conditions: 336 h, read-out: minimal inhibitory concentration (MIC)
[7] = tested on: M. fortuitum KMC4101; experiment: as above; type: cell-based; conditions: Mycolicibacterium fortuitum, read-out: minimal inhibitory concentration (MIC)
[8] = tested on: M. kansasii KMC1101; experiment: as above; type: cell-based; conditions: Mycobacterium kansasii, read-out: minimal inhibitory concentration (MIC)
[9] = Solubility; type: physicochemical
[10] = tested on: M. xenopi KMC2301; experiment: MIC, two-fold dilution, Dubos Tween albumin liquid medium; type: cell-based; conditions: Mycobacterium xenopi
[11] = tested on: M. nonchromogenicum KMC3602; experiment: as above; type: cell-based; conditions: 336 h, read-out: minimal inhibitory concentration (MIC)
[12] = tested on: fast-acid bacteria including tubercle bacillus; experiment: Antibacterial activity against fast-acid (acid-fast) bacteria, in words; type: cell-based; conditions: for antibacterial activity against fast-acid (acid-fast) bacteria: in words
Description: as §1

[13] = tested on: M. aviumintracellulare, a causative microorganism of refractory atypical fast-acid disease; experiment: Comparative antibacterial activity, in words; type: cell-based; conditions: for activity against the pathogenic bacterium of atypical fast-acid bacterium disease relative to kanamycin: compared with kanamycin
[14] = tested on: M. chelonei KMC4201; experiment: MIC, two-fold dilution, Dubos Tween albumin liquid medium; type: cell-based; conditions: read-out: minimal inhibitory concentration (MIC)
[15] = tested on: M. avium KMC3101; experiment: as above; type: cell-based; conditions: Mycobacterium avium, read-out: minimal inhibitory concentration (MIC)
[16] = tested on: M. gordonae KMC2201; experiment: as above; type: cell-based; conditions: Mycobacterium gordonae, read-out: minimal inhibitory concentration (MIC)
[17] = tested on: M. scrofulaceum KMC2102; experiment: as above; type: cell-based; conditions: Mycobacterium scrofulaceum, read-out: minimal inhibitory concentration (MIC)
[18] = tested on: M. simiae KMC1302; experiment: as above; type: cell-based; conditions: 336 h, read-out: minimal inhibitory concentration (MIC)
[19] = tested on: M. bovis BCG; experiment: microbe, parasite or virus in culture; type: cell-based; conditions: Mycobacterium tuberculosis variant bovis BCG, 336 h, read-out: minimal inhibitory concentration (MIC)
[20] = 336 h, M. intracellulare KMC3209, 37° C., 2 weeks
[21] = M. szulgai KMC2401, 37° C., 2 weeks
[22] = M. avium-intracellulare clinical isolated strain 16, 37° C., 2 weeks
[23] = 168 h, M. fortuitum KMC4101, 37° C., 1 week
[24] = 336 h, M. kansasii KMC1101, 37° C., 2 weeks
[25] = M. xenopi KMC2301, 37° C., 5 weeks, read-out: minimal inhibitory concentration (MIC)
[26] = M. nonchromogenicum KMC3602, 37° C., 2 weeks
[27] = 168 h, M. chelonei KMC4201, 37° C., 1 week
[28] = 336 h, M. avium KMC3101, 37° C., 2 weeks
[29] = 336 h, M. gordonae KMC2201, 37° C., 2 weeks
[30] = 336 h, M. scrofulaceum KMC2102, 37° C., 2 weeks
[31] = M. simiae KMC1302, 37° C., 2 weeks

Compound | MIC [1, 20] [µg/mL] | effectiveness against rifanpicin-resistant strains [2] | effectiveness against kanamycin-resistant strains [3] | MIC [4, 21] [µg/mL] | MIC [5] [µg/mL] | MIC [6, 22] [µg/mL] | MIC [7, 23] [µg/mL] | MIC [8, 24] [µg/mL] | MIC [10, 25] [µg/mL] | MIC [11, 26] [µg/mL] | antibacterial activity against fast-acid (acid-fast) bacteria [12] | activity against the pathogenic bacterium of atypical fast-acid bacterium disease relative to kanamycin [13] | MIC [14, 27] [µg/mL] | MIC [15, 28] [µg/mL] | MIC [16, 29] [µg/mL] | MIC [17, 30] [µg/mL] | MIC [18, 31] [µg/mL] | MIC [19] [µg/mL] | other results
CC(C)c1c(O)cc(C(NC(=N)N)C(=O)NCC(=O)O)cc1O (stereo not drawn) [DO-248-A, N-(α-guanidino-3,5-dihydroxy-4-isopropylphenylacetyl)glycine] | 0.025 (≈ 0.0771 µM) | effective; also recorded: have antibacterial activity | effective; also recorded: have antibacterial activity | 3.13 (≈ 9.65 µM) | 0.05 (≈ 0.154 µM) | 0.1 (≈ 0.308 µM) | > 25 | 0.00313 (≈ 0.00965 µM) | 0.39 (≈ 1.2 µM) | 12.5 (≈ 38.5 µM) | effective; also recorded: have antibacterial activity | more active | > 25 | 0.78 (≈ 2.4 µM) | 0.00625 (≈ 0.0193 µM) | 0.2 (≈ 0.617 µM) | 6.25 (≈ 19.3 µM) | 0.05 (≈ 0.154 µM) | Solubility ([9]; in acetone): slightly soluble; Solubility ([9]; in benzene): insoluble; Solubility ([9]; in chloroform): slightly soluble; Solubility ([9]; in dimethylformamide): readily soluble; Solubility ([9]; in ethanol): readily soluble; Solubility ([9]; in ether): insoluble; Solubility ([9]; in ethylacetate): slightly soluble; Solubility ([9]; in hexane): insoluble; Solubility ([9]; in methanol): readily soluble; Solubility ([9]; in water): soluble; effectiveness against M. aviumintracellulare relative to kanamycin and rifanpicin ([13]; compared with kanamycin and rifanpicin): more effective
NC[C@H]1O[C@H](O[C@H]2[C@H](O)[C@@H](O[C@H]3O[C@H](CO)[C@@H](O)[C@H](N)[C@H]3O)[C@H](N)C[C@@H]2N)[C@H](O)[C@@H](O)[C@@H]1O [KM, kanamycin] |  |  |  |  | 0.025 (≈ 0.0516 µM) |  |  |  |  |  |  |  |  |  |  |  |  | 0.00156 (≈ 0.00322 µM) | MIC ([1]; KMC3209, 336 h): 0.05 µg/mL (≈ 0.103 µM); MIC [4]: 1.56 µg/mL (≈ 3.22 µM); MIC [6]: 6.25 µg/mL (≈ 12.9 µM); MIC ([7]; KMC4101, 168 h): 25 µg/mL (≈ 51.6 µM); MIC ([8]; KMC1101, 336 h): 6.25 µg/mL (≈ 12.9 µM); MIC ([10]; KMC2301, read-out: minimal inhibitory concentration (MIC)): 0.1 µg/mL (≈ 0.206 µM); MIC [11]: > 25 µg/mL; MIC ([14]; KMC4201, 168 h): > 25 µg/mL; MIC ([15]; KMC3101, 336 h): 3.13 µg/mL (≈ 6.46 µM); MIC ([16]; KMC2201, 336 h): 0.39 µg/mL (≈ 0.805 µM); MIC ([17]; KMC2102, 336 h): 0.0125 µg/mL (≈ 0.0258 µM); MIC [18]: 12.5 µg/mL (≈ 25.8 µM)
CCc1c(O)cc(C(NC(=N)N)C(=O)NCC(=O)O)cc1O (stereo not drawn) [DO-248-B, N-(α-guanidino-3,5-dihydroxy-4-ethylphenylacetyl)glycine] |  | have antibacterial activity | have antibacterial activity |  |  |  |  |  |  |  | effective; also recorded: have antibacterial activity | more active |  |  |  |  |  |  | effectiveness relative to DO-248-A ([12]; compared with DO-248-A): as effective as DO-248-A
CO[C@H]1/C=C/O[C@@]2(C)Oc3c(C)c(O)c4c(O)c(c(/C=N/N5CCN(C)CC5)c(O)c4c3C2=O)NC(=O)/C(C)=C\C=C\[C@H](C)[C@H](O)[C@@H](C)[C@@H](O)[C@@H](C)[C@H](OC(C)=O)[C@@H]1C [RFP, rifampicin] | < 0.001 |  |  | 0.025 (≈ 0.0304 µM) | < 0.001 | 3.13 (≈ 3.8 µM) | 3.13 (≈ 3.8 µM) | 0.0125 (≈ 0.0152 µM) | 0.00625 (≈ 0.00759 µM) | 25 (≈ 30.4 µM) |  |  | 6.25 (≈ 7.59 µM) | 0.2 (≈ 0.243 µM) | 0.0125 (≈ 0.0152 µM) | 0.00313 (≈ 0.0038 µM) | > 25 | < 0.001 | 
